Patent US7939513B2, “Tetracycline derivatives as antibacterial agents” (Dr. Reddy's Laboratories Limited, priority 2007, dated 2011)
≈ marks a conversion by molar mass, not a printed value. Structures can show the parent of a compound that is named as a salt. Where two headings read alike, the source gives them in different places.

Key:
[1] = tested on: E. coli DRCC 018 ATCC 25922; test: In vitro MIC by broth microdilution; type: cell-based; details: Escherichia coli, ATCC25922
Description: (§1) Minimum Inhibition Concentrations (MICs) were determined by broth microdilution technique as per the guidelines prescribed in the fifth edition of Approved Standards NCCLS document M7-A5 Vol 20-No 2, 2000 Villinova, Pa. (Currently Clinical and Laboratory Standards Institute (CLSI)). Initial stock solution of the compound of formula (I) was prepared in DMSO. Subsequent two fold dilutions were carried out in sterile Cation adjusted Muller Hinton Broth (Difco) (MHB). Frozen cultures stocks were inoculated in 25 ml sterile MHB in 50 ml Erlyn Meyer flasks.
(§2) Composition of MHB is as follows: Beef Extract Powder—2.0 grams/litre, Acid Digest of Casein—17.5 grams/litre, Soluble Starch—1.5 grams/litre, Final pH 7.3±0.1
(§3) Flasks were incubated for 4 to 5 hours at 36±1° C. on a rotary shaker at 110 rpm. Inoculum was prepared by diluting the culture in sterile MHB to obtain a turbidity of 0.5 McFarland standard. This corresponds to 1−2×10^8 CFU/mL. The stock was further diluted to achieve a final inoculum density of 5×10^4 to 1×10^5 CFU/well. The plates were incubated 18 to 20 hours at 37° C.

[2] = tested on: E. faecalis DRCC 034 VSE ATCC 29212; test: In vitro MIC by broth microdilution; type: cell-based; details: Enterococcus faecalis, ATCC29212
Description: as §1, §2, §3

[3] = tested on: E. faecalis DRCC 153 VRE NCTC 12201; test: In vitro MIC by broth microdilution; type: cell-based; details: Enterococcus faecalis
Description: as §1, §2, §3

[4] = tested on: E. faecium DRCC 154 VRE NCTC 12202; test: In vitro MIC by broth microdilution; type: cell-based; details: Enterococcus faecium
Description: as §1, §2, §3

[5] = tested on: K. pn DRCC 575 ATCC 700603; test: In vitro MIC by broth microdilution; type: cell-based; details: Klebsiella pneumoniae, ATCC700603
Description: as §1, §2, §3

[6] = tested on: P. aeru DRCC 024 ATCC 27853; test: In vitro MIC by broth microdilution; type: cell-based; details: Pseudomonas aeruginosa, ATCC27853
Description: as §1, §2, §3

[7] = tested on: S. aureus DRCC 019 MRSA ATCC 33591; test: In vitro MIC by broth microdilution; type: cell-based; details: Staphylococcus aureus
Description: as §1, §2, §3

[8] = tested on: S. aureus DRCC 035 MSSA ATCC 29213; test: In vitro MIC by broth microdilution; type: cell-based; details: Staphylococcus aureus
Description: as §1, §2, §3

E faecalis DRCC 543 = test: ED50 in murine systemic infection model; type: in vivo; details: Enterococcus faecalis, 120 h, Swiss Albino Mice, survival 5 days
Description: (§4) Animals: Specific pathogen free outbred, female and male Swiss Albino Mice, 4-6 weeks old, weighing 25±2 grams.
(§5) Inoculum Preparation: • Systemic infection model is performed based on LD50 of an organism. 10-1000×LD50 or 1-5 MLD (minimum lethal dose) is used as an infecting inoculum. • Organisms are sub-cultured on blood agar plates and incubated at 35-37° C. for 18-24 hours. Inoculum is prepared in 0.9% normal saline and optical density adjusted at 560 nm to yield an inoculum density of 10^5 to 10^9CFU/mL based on the test organism. • Adjusted inoculum is further diluted 1:1 in mucin solution to achieve a final mucin concentration of 5-7.5% (wt/vol). • Log CFUs of inoculum is determined by serially diluting the inoculum in normal saline and plating on suitable agar plates. Plates are incubated at 35-37° C. for 18-24 hours and counts determined.
(§6) Infection: • Animals are infected with 0.5 ml of inoculum by intra-peritoneal route. • Two groups of mice left untreated, serve as untreated control.
(§7) Treatment: • For single dose, compound of formula (I) is administered at 0 to 3 hour post-infection by p.o./s.c./i.v. route. • For b.i.d., compound of formula (I) administered at 0 to 3 hour post-infection for first dose and at 4 to 6 hours post-infection for second dose by p.o./s.c./i.v. route.
(§8) End point: Survival/death in each treated and untreated groups are monitored for 5 days (7 days for S. pneumoniae). The ED50 values are determined by probit analysis.

E. Coli ATCC 25992 = test: ED50 in murine systemic infection model; type: in vivo; details: Escherichia coli, 120 h, Swiss Albino Mice, survival 5 days
Description: as §4, §5, §6, §7, §8

MRSA DRCC 446 = test: ED50 in murine systemic infection model; type: in vivo; details: Staphylococcus aureus, 120 h, Swiss Albino Mice, survival 5 days
Description: as §4, §5, §6, §7, §8

[9] = tested on: S. aureus DRCC 035 (ATCC 29213); test: ED50 in murine systemic infection model; type: in vivo; details: Staphylococcus aureus, 120 h, Swiss Albino Mice, survival 5 days
Description: as §4, §5, §6, §7, §8

S. pneumoniae ATCC 49619 = test: ED50 in murine systemic infection model; type: in vivo; details: Streptococcus pneumoniae, 168 h, Swiss Albino Mice, survival 7 days
Description: as §4, §5, §6, §7, §8

[10] = E. coli DRCC 018, ATCC 25922, read-out: MIC
[11] = E. faecalis DRCC 034, VSE, ATCC 29212, read-out: MIC
[12] = E. faecalis DRCC 153, VRE, NCTC 12201, read-out: MIC
[13] = E. faecium DRCC 154, VRE, NCTC 12202, read-out: MIC
[14] = K. pn DRCC 575, ATCC 700603, read-out: MIC
[15] = P. aeru DRCC 024, ATCC 27853, read-out: MIC
[16] = S. aureus DRCC 019, MRSA, ATCC 33591, read-out: MIC
[17] = S. aureus DRCC 035, MSSA, ATCC 29213, read-out: MIC

Row | Compound | MIC [1, 10] [µg/mL] | MIC [2, 11] [µg/mL] | MIC [3, 12] [µg/mL] | MIC [4, 13] [µg/mL] | MIC [5, 14] [µg/mL] | MIC [6, 15] [µg/mL] | MIC [7, 16] [µg/mL] | MIC [8, 17] [µg/mL] | other results
1 | CN(C)c1cc(NC(=O)[C@@H]2CCCN2C)c(O)c2c1C[C@H]1C[C@H]3[C@H](N(C)C)C(O)=C(C(N)=O)C(=O)[C@@]3(O)C(O)=C1C2=O [Example 2, (S)—N-((5aR,6aS,7S,10aS)-9-carbamoyl-4,7-bis(dimethylamino)-1,8,10a,11-tetrahydroxy-10,12-dioxo-5,5a,6,6a,7,10,10a,12-octahydrotetracen-2-yl)-1-methylpyrrolidine-2-carboxamide] | 0.12 (≈ 0.206 µM) | 0.03 (≈ 0.0514 µM) | 0.03 (≈ 0.0514 µM) | 0.01 (≈ 0.0171 µM) | 8 (≈ 13.7 µM) | 16 (≈ 27.4 µM) | 0.25 (≈ 0.428 µM) | 0.12 (≈ 0.206 µM) | ED50 (E faecalis DRCC 543; DRCC543, iv, E faecalis DRCC 543, i.v.-q.d.): 0.28 mg/kg; ED50 (E faecalis DRCC 543; DRCC543, po, E faecalis DRCC 543, p.o.-b.i.d.): 2.53 mg/kg; ED50 (E. Coli ATCC 25992; ATCC25992, iv, E. Coli ATCC 25992, i.v.-q.d.): 0.5 mg/kg; ED50 (E. Coli ATCC 25992; ATCC25992, po, E. Coli ATCC 25992, p.o.-b.i.d.): 12.6 mg/kg; ED50 (MRSA DRCC 446; iv, MRSA DRCC 446, i.v.-q.d.): 0.77 mg/kg; ED50 (MRSA DRCC 446; po, MRSA DRCC 446, p.o.-b.i.d.): 7.3 mg/kg; ED50 ([9]; ATCC29213, iv, i.v.-q.d.): 0.6 mg/kg; ED50 ([9]; ATCC29213, po, p.o.-b.i.d.): 5.5 mg/kg; ED50 (S. pneumoniae ATCC 49619; ATCC49619, iv, S. pneumoniae ATCC 49619, i.v.-q.d.): 0.16 mg/kg; ED50 (S. pneumoniae ATCC 49619; ATCC49619, po, S. pneumoniae ATCC 49619, p.o.-b.i.d.): 6.2 mg/kg
2 | CCN1CCC[C@H]1C(=O)Nc1cc(N(C)C)c2c(c1O)C(=O)C1=C(O)[C@]3(O)C(=O)C(C(N)=O)=C(O)[C@@H](N(C)C)[C@@H]3C[C@@H]1C2 [Example 3, (S)—N-((5aR,6aS,7S,10aS)-9-carbamoyl-4,7-bis(dimethylamino)-1,8,10a,11-tetrahydroxy-10,12-dioxo-5,5a,6,6a,7,10,10a,12-octahydrotetracen-2-yl)-1-ethylpyrrolidine-2-carboxamide] | 0.5 (≈ 0.837 µM) | 0.12 (≈ 0.201 µM) | 0.12 (≈ 0.201 µM) | 0.06 (≈ 0.1 µM) | 16 (≈ 26.8 µM) | > 32 | 0.5 (≈ 0.837 µM) | 0.5 (≈ 0.837 µM) | –
3 | CCCN1CCC[C@H]1C(=O)Nc1cc(N(C)C)c2c(c1O)C(=O)C1=C(O)[C@]3(O)C(=O)C(C(N)=O)=C(O)[C@@H](N(C)C)[C@@H]3C[C@@H]1C2 [Example 4, (S)—N-((5aR,6aS,7S,10aS)-9-carbamoyl-4,7-bis(dimethylamino)-1,8,10a,11-tetrahydroxy-10,12-dioxo-5,5a,6,6a,7,10,10a,12-octahydrotetracen-2-yl)-1-propylpyrrolidine-2-carboxamide] | 2 (≈ 3.27 µM) | 0.25 (≈ 0.409 µM) | 0.5 (≈ 0.817 µM) | 0.12 (≈ 0.196 µM) | > 32 | > 32 | 1 (≈ 1.63 µM) | 1 (≈ 1.63 µM) | –
4 | CC(C)CN1CCC[C@H]1C(=O)Nc1cc(N(C)C)c2c(c1O)C(=O)C1=C(O)[C@]3(O)C(=O)C(C(N)=O)=C(O)[C@@H](N(C)C)[C@@H]3C[C@@H]1C2 [Example 7, (S)—N-((5aR,6aS,7S,10aS)-9-carbamoyl-4,7-bis(dimethylamino)-1,8,10a,11-tetrahydroxy-10,12-dioxo-5,5a,6,6a,7,10,10a,12-octahydrotetracen-2-yl)-1-isobutylpyrrolidine-2-carboxamide dihydrochloride] | – | – | – | – | – | – | – | – | MIC [1]: 4 µg/mL; MIC [2]: 0.5 µg/mL; MIC [3]: 1 µg/mL; MIC [4]: 0.5 µg/mL; MIC [5]: 128 µg/mL; MIC [6]: 64 µg/mL; MIC [7]: 2 µg/mL; MIC [8]: 2 µg/mL
